Test results as given in patent US20200038417A1, “METHODS AND COMPOSITIONS FOR TREATING COGNITIVE IMPAIRMENT” (Enterin, Inc., priority 2018, published 2020).
“Also recorded” adds a separate entry of the source.

Key:
[1] = system: gastrointestinal motility; details: prior studies; cited from earlier work
[2] = following systemic administration, mice, into the duodenum through the biliary tract; cited from earlier work
[3] = dilactate salt, single and repeat intravenous administration, alone or in combination; cited from earlier work
[4] = system: IPANs (intrinsic primary afferent neuron); details: perfusion through the lumen of isolated bowel segment from the PD mouse model; cited from earlier work
[5] = system: C. elegans αS model; details: cited from earlier work; for formation of αS aggregates: C. elegans model of PD in vivo
[6] = system: mouse models of PD; details: mouse models of PD (constipation due to overexpression of human αS); cited from earlier work
[7] = target: T1, αS (Homo sapiens, UniProt P37840); details: in vitro; cited from earlier work
[8] = Solubility in water; assay type: physicochemical; details: phosphate salt
[9] = Safety and adverse event (AE) profile, Phase 2 trial of oral squalamine (ENT-01); assay type: in vivo, human
Method: (§1) Tolerability limits included diarrhea or vomiting.
(§2) In Stage 2, 34 patients were evaluated.

[10] = system: patients with PD; experiment: Circadian rhythm of wrist skin temperature (I-Button); assay type: in vivo, human; details: fixed dose vs baseline, 12 evaluable patients
Method: (6) I-Button Temperature Assessment. The I-Button is a small, rugged self-sufficient system that measures temperature and records the results in a protected memory section. The Thermochron I-Button DS1921H (Maxim Integrated, Dallas, Tex.) was used for skin temperature measurement. I-Buttons were programmed to sample every 10 mins., and attached to a double-sided cotton sport wrist band using Velcro, with the sensor face of the I-Button placed over the inside of the wrist, on the radial artery of the dominant hand. Subjects removed and replaced the data logger when necessary (i.e., to have a bath or shower). […] From the collected data, the mesor, amplitude, acrophase (time of peak temperature), Rayleight test (an index of interdaily stability), mean waveforms are calculated.);
(§3) Assessments were made at baseline and at the end of the fixed dose and washout periods. Circadian system status was evaluated by continuously monitoring wrist skin temperature (Thermochron iButton DS1921H; Maxim, Dallas) following published procedures (Sarabia et al. 2008).
Circadian rhythm of skin temperature was evaluable in 12 patients (i.e., those who had recordings that extended from baseline through washout). Circadian system functionality was evaluated by continuously monitoring wrist skin temperature using a temperature sensor (Thermochron iButton DS1921H; Maxim, Dallas, Tex.) (Sarabia et al. 2008). […]

[11] = target: T1, αS; details: in vitro; cited from earlier work; remark: listed apart in the source
[12] = system: patients with PD and constipation; experiment: Effect on bowel function (prokinetic response, stool diary indices), Phase 2 trial; assay type: in vivo, human; details: patients with baseline ≥1 CSBM/week
Method: Following successful screening, all subjects underwent a 14-day run-in period where the degree of constipation was assessed through a validated daily log (Zinsmeister et al. 2013) establishing baseline CSBMs/week. Subjects with an average of <3 CSBMs/week proceeded to dosing.
as §1, §2
The primary efficacy outcome variable was whether or not a subject was a “success” or “failure”. This is an endpoint based on subject diary entries for the “fixed dose” period prior to the endpoint assessment defined as average complete stool frequency increase by 1 or more over baseline, or 3 or more complete spontaneous stools/week. The subject was deemed a “success” if s/he met one or more of the criteria listed above, otherwise the subject was deemed a “failure”. The primary analysis was based on all subjects with a baseline assessment and an assessment at the end of the “fixed-dose” period and was a comparison of the proportion of successes with 0.10 (the null hypothesis corresponding to no treatment effect).

[13] = Preclinical studies of oral squalamine (ENT-01) in rats; assay type: in vivo; details: rat, oral dosing of radioactive ENT-01, portal blood concentrations
[14] = system: patients with PD; experiment: CNS symptoms in Stage 2 (UPDRS, MMSE, PDHQ, BDI-II); assay type: in vivo, human; details: during treatment; 5 patients with hallucinations and 1 with delusions at baseline
From the text: Exploratory end-points, in addition to constipation, included for example, (i) depression assessed using the Beck Depression Inventory (BDI-II) (Steer et al. 2000) and Unified Parkinson's Disease Rating Scale (UPDRS); (ii) cognition assessed using the Mini Mental State Examination (MMSE) (Palsteia et al. 2018), Unified Parkinson's Disease Rating Scale (UPDRS), and Trail Making Test (TMT); (iii) sleep and REM-behavior disorder (RBD) using a daily sleep diary, I-Button Temperature Assessment, a REM sleep behavior disorder (RBD) questionnaire (RBDQ) (Stiasny-Kolster et al. 2007), and the UPDRS; (iv) hallucinations assessed using the PD hallucinations questionnaire (PDHQ) (Papapetropoulos et al. 2008), the UPDRS, and direct questioning; (v) fatigue using the Parkinson's Disease Fatigue Scale (PFS-16) and the UPDRS; (vi) motor functions using the UPDRS; and (vii) non-motor functions using the UPDRS.
as §3
An exploratory analysis was done with respect to the sleep data, the body temperature data, mood, fatigue, hallucinations, cognition and other motor and non-motor symptoms of PD. […]

[15] = Stage 2, 34 dosed, unrelated to ENT-01

CC(C)[C@@H](CC[C@@H](C)[C@H]1CC[C@H]2[C@@H]3[C@H](O)C[C@H]4C[C@@H](NCCCNCCCCN)CC[C@]4(C)[C@H]3CC[C@]12C)OS(=O)(=O)O [squalamine]
gastrointestinal motility after intravenous administration [1]: not associated with increased gastrointestinal motility
clearance and excretion [2]: cleared by the liver and excreted as the intact molecule
well tolerated dose [3]: at least 300 mg/m^2
effect on IPANs [4]: excitation of IPANs
formation of αS aggregates [5]: inhibits the formation of αS aggregates
muscle paralysis / motor dysfunction ([5]; C. elegans αS model): reverses motor dysfunction; also recorded: complete reversal of muscle paralysis
effect on gastrointestinal motility [6]: stimulates gastro-intestinal motility; also recorded: restores gastrointestinal motility; also recorded: reverse gastrointestinal dysmotility
formation of αS aggregates [7]: inhibits the formation of αS aggregates

CC(C)[C@@H](CC[C@@H](C)[C@H]1CC[C@H]2[C@@H]3[C@H](O)C[C@H]4C[C@@H](NCCCNCCCCN)CC[C@]4(C)[C@H]3CC[C@]12C)OS(=O)(=O)O (single isomer, unassigned) [squalamine (ENT-01)]
solubility in water ([8]; neutral pH): weakly soluble in water
dissolution in water ([8]; pH<3.5 (the pH of gastric fluid)): readily dissolves
Blood in urine, Mild [9, 15]: 0 n
Loss of appetite, Mild [9, 15]: 0 n
Lower GI bleed, Severe ([9]; Stage 2, colonic diverticulosis, polyp, patient on aspirin, Plavix and naproxen, unrelated to ENT-01): 1 n
patients with worsening of hemorrhoids ([9]; both stages, 1/44 patients): 2.2%
patients with worsening of acid reflux ([9]; both stages, 2/44 patients): 4.5%
patients with flatulence ([9]; both stages, 3/44 patients): 6.8%
patients with vomiting ([9]; both stages, 3/44 patients): 6.8%
patients with dizziness ([9]; both stages, 8/44 patients): 18%
patients with abdominal pain ([9]; both stages, 11/44 patients): 32%
markers of circadian function (IS, RA, CFI, IV) of wrist skin temperature rhythm [10]: improved all markers of healthy circadian function
displacement of αS from membranes [11]: displace αS from membranes
mean dose required for a bowel (prokinetic) response [12]: 120 mg
formation of αS aggregates [5]: inhibit the formation of aggregates of αS
absorption from the intestine [13]: low
formation of αS aggregates [7]: inhibit the formation of aggregates of αS
hallucinations and delusions improved or disappeared [14]: 5 of 6
